“Also recorded” adds a separate entry of the source.
Columns and labels:
[1] = system: P. redivivus males and females; assay: Retention assay, P. redivivus; assay type: in vivo
Protocol: (§1) OP50 E. coli was grown on a standard 5 cm agar plate (made with standard Nematode Growth Medium). The bacterial lawn was 16 mm in diameter and was grown overnight at 20° C. before being used in trials. Two 4 mm spots (0.6 μL) were placed on opposite sides of the bacterial lawn (using a transparent template to guide spot placement), and several minutes elapsed for the liquid to settle in before placing nematodes down on the assay. Recording began immediately upon worm placement. 0.6 μL of the control was placed on one side of the lawn, and 0.6 μL of the experimental cue was placed on the other side of the lawn, changing the location of the cue throughout trials between left/right and top/bottom to avoid bias.
Nematodes were isolated by gender at the L4 stage the day before being used in trials as developed adults. Worms were evenly divided and placed at two points equidistant from the foci of the scoring region. Trials were recorded for 20 minutes, and frames were collected for analysis at 1 frame per second. Results were averaged from at least three different trials. For every nematode species in this study, a different total number of worms (using water in both scoring regions) was tested to determine the minimum number of worms necessary for consistent unbiased results over a 20 minute trial. The total number of worms used in the multiple species assays depended on that species' optimal parameters. […]
(§2) A video camera attached to the microscope produced a digital video stream, which was then analyzed. The ratio of the time the average worm spent in each region of interest was calculated for every trial. […] Thus worm pixels were counted instead of whole worms, allowing fractions of a worm in the region of interest to be taken into account. It also eliminated the need for a shape-based worm identification algorithm, and allowed each frame to be analyzed independently. […] Thus, the ratio of worm-pixels to all pixels inside the region of interest can be calculated to produce the worm-occupancy ratio. […]

[2] = system: C. elegans males; assay: Retention assay, C. elegans males; assay type: in vivo
Protocol: as §1, with “0.6 μL of the control was placed on one side of the lawn, and 0.6 μL of the experimental cue was placed on the other side of the lawn, changing the location of the cue throughout trials between left/right and top/bottom to avoid bias.” left out
(§3) Nematodes were isolated by gender at the L4 stage the day before being used in trials as developed adults. […] Trials were recorded for 20 minutes, and frames were collected for analysis at 1 frame per second. […]
as §2

[3] = system: S. glaseri males; assay: Retention assay, S. glaseri males; assay type: in vivo
Protocol: as §1, with “0.6 μL of the control was placed on one side of the lawn, and 0.6 μL of the experimental cue was placed on the other side of the lawn, changing the location of the cue throughout trials between left/right and top/bottom to avoid bias.” left out
as §3, §2

[4] = system: several of the tested nematode species; assay: Retention assay, several nematode species; assay type: in vivo; conditions: 1 nM, 1 μM and 1 mM tested
Protocol: as §1
Nematodes were isolated by gender at the L4 stage the day before being used in trials as developed adults. Worms were evenly divided and placed at two points equidistant from the foci of the scoring region. Trials were recorded for 20 minutes, and frames were collected for analysis at 1 frame per second. Results were averaged from at least three different trials. For every nematode species in this study, a different total number of worms (using water in both scoring regions) was tested to determine the minimum number of worms necessary for consistent unbiased results over a 20 minute trial. The total number of worms used in the multiple species assays depended on that species' optimal parameters. 10 worms were used for P. redivivus males and females, 20 worms were used for C. elegans males and O. dolichuridae males, and 14 worms were used for S. glaseri males. The Automated Software was used to compare worm occupancy in each scoring region over time, and the Chemotaxis Index (Bargmann et al., Cell 74:515-27 (1993), which is hereby incorporated by reference in its entirety) was adapted to score preference or avoidance to each ascaroside.
A video camera attached to the microscope produced a digital video stream, which was then analyzed. The ratio of the time the average worm spent in each region of interest was calculated for every trial. For ease of implementation, all worms in a single experiment were assumed to be roughly the same size. Thus worm pixels were counted instead of whole worms, allowing fractions of a worm in the region of interest to be taken into account. It also eliminated the need for a shape-based worm identification algorithm, and allowed each frame to be analyzed independently. A band-pass filter was applied to each frame to eliminate the effect of uneven lighting and also accentuate the worms against the background. The worm was then identified after thresholding the filtered image. Throughout each experiment, the locations and sizes of the regions of interest were known. Through the filtering described above, it is known which pixels are occupied by worms and which ones are not. Thus, the ratio of worm-pixels to all pixels inside the region of interest can be calculated to produce the worm-occupancy ratio. This calculation was done for every frame, giving a plot output of worm-occupancy ratio vs. time for each region.

[5] = system: P. pacificus strain RSB020; assay: Mouth-form dimorphism assay; assay type: in vivo, Pristionchus pacificus; conditions: high concentrations
Protocol: Mouth-form dimorphism assays were performed using P. pacificus strain RSB020. The synthetic compounds dissolved in ethanol (0.5 mM) were diluted with water to make 100 μl solution and subsequently added to 3 mL NGM-agar (1 μM final concentration). The assay plates were seeded with 50 μl OP50 culture in LB medium and incubated overnight at 20° C. to allow bacterial growth. Each replicate included the progeny of two mothers, which were picked as adult hermaphrodites of a consistent age (carrying 4-6 eggs) and which were all from the same P. pacificus culture plate. Following the placement of mothers on assay plates, plates were kept at 20° C. for six days, such that the entire broods were adults at the time of screening. A random sample of 50 hermaphrodite progeny was screened per plate. All animals were screened by differential interference contrast (DIC) microscopy on a Zeiss Axiskop. The following discrete characters were used to discriminate eurystomatous from stenostomatous individuals, respectively: (1) claw-shaped vs. flint-shaped (i.e. dorsoventrally symmetrical) dorsal tooth; (2) presence vs. absence of a subventral tooth; (3) strongly vs. weakly sclerotized stomatal walls. No intermediate mouth-forms were observed. Experiments were conducted in triplicate for each treatment. In assays of responses to compounds of several concentrations (1, 0.3, 0.1, 0.03, 0.01 μM final concentrations), experiments were performed as described above, with the following modifications. To allow greater resolution of responses to lower concentrations, 60 randomly screened individuals in each of five replicates per concentration per compound were assayed. All concentration-curve experiments were performed in parallel using mothers picked randomly from the same two source populations. To prepare large numbers of individual mothers for these experiments, source populations were established from virgin hermaphrodites to constrain the presence of males and were conditioned to well-fed and ambient conditions for at least one generation before mothers were picked for the assays.

[6] = system: P. pacificus; assay: Dauer formation assay; assay type: in vivo, Pristionchus pacificus; conditions: even at very high concentrations (20 μM)
Protocol: Dauer formation assays were performed as described in Ogawa et al., Curr. Biol. 19:67-71 (2009), which is hereby incorporated by reference in its entirety, using heat- or kanamycin-killed E. coli OP50. Synthetic compounds were dissolved in ethanol (0.5 mM, stock solution) and combined with water to make a […] and subsequently added to 3 mL NGM-agar without peptone ([…], 0.3, 0.1 μM final concentrations).

[7] = system: males; assay: Bioassay of HPLC-purified peak; assay type: in vivo; conditions: purified peak with retention time of 9.7 minutes
Protocol: A Thermo Finnigan LCQ Deca XP Max was used with electrospray ionization in positive ion mode in the 50-1000 AMU range. The Thermo Separation spectra HPLC system consisted of a P4000 quaternary pump, an AS 3000 auto sampler, and a UV 6000 diode array detector. The solvents were water with (a) 0.1% formic acid and (b) 90% acetonitrile-10% water with 10 mM ammonium formate. The column temperature was maintained at 60° C. and a solvent flow of 1.0 ml/min. The reversed phase column (PLRP-S Polymeric reversed phase column, 250×4.6 mmid, Varian Inc.) was eluted with a solvent composition starting with 90:10 (a,b) for 2 minutes, followed by a gradient to 5:95 in 20 minutes and an additional 5 minutes at 5:95. Ultraviolet absorption was monitored at 190 and 400 nm. Solvent flow between the ultraviolet detector and mass spectroscopy electrospray interface split 9:1 with a low-volume micro needle P450 splitter valve (Upchurch Scientific, Oak Harbor, Wash.), making it possible to obtain spectra of eluted compounds and simultaneously collect 90% of the injected material for bioassay. […] This was confirmed to be ascr#1 using NMR analysis.

[8] = system: C. elegans; assay: Aggregation assay; assay type: in vivo
Protocol: Aggregation behavior of worms was measured using assays reported in de Bono & Bargmann, Cell 94:679-89 (1998), which is hereby incorporated by reference in its entirety. Aggregation assays were conducted on standard NGM plates. Plates containing indole ascarosides were made by adding the indole ascaroside stock solution to the NGM media before they were poured onto the plates. These plates were dried at room temperature for 2 to 3 days. Control plates were treated similarly, except that ethanol solutions instead of icas solutions were added to the plates, corresponding to the amount of ethanol introduced via the icas solutions. Final ethanol concentrations of the plates were below 0.1% for all conditions. After drying, both control plates and plates containing indole ascarosides were seeded with 150 μl of an overnight culture of E. coli OP50 using a micropipette, and were allowed to dry for 2 days at room temperature. For “low worm density” experiments, 20 worms were placed onto the lawn and left at 20° C. for 3 hours. For “high worm density” experiments, approximately 120 worms were placed onto the bacterial lawn and left at 20° C. for 3 hours. Aggregation behavior was quantified as the number of animals that were in touch with two or more animals at greater than 50% of their body length.

[9] = system: C. elegans; conditions: Srinivasan et al. 2012; cited from earlier work
[10] = system: C. elegans; conditions: cited from earlier work
[11] = system: C. elegans hermaphrodites and males; assay: Spot attraction assay; assay type: in vivo
Protocol: The spot attraction assays were conducted according to a previously reported method (Pungaliya et al., PNAS 106:7708-13 (2009); Srinivasan et al., Nature 454:1115-18 (2008), which are hereby incorporated by reference in their entirety). For both C. elegans hermaphrodites and males, 50-60 worms were harvested daily at the fourth larval stage (L4) and stored segregatedly by sex at 20° C. overnight, to be used as young adults the following day. For the competition experiments, two conditions were used: 120 nM ascr#3 and 10 nM icas#3 (Condition 1), or 12 μM ascr#3 and 1 μM icas#3 (Condition 2) in water containing 10% ethanol. Aliquots were stored at −20° C. in 20 μL tubes. 10% ethanol in water was used as control.
Attraction assays with hbas#3 were conducted as previously reported (Srinivasan et al., Nature 454:1115-18 (2008); Pungaliya et al., Proc. Natl. Acad. Sci. U.S.A. 106:7708-13 (2009), which are hereby incorporated by reference in their entirety). For the attraction assays, 50-60 hermaphrodite worms were harvested daily at the early fourth larval stage (L4) and stored at 20° C. overnight to be used as young adults the following day. Hbas#3 was dissolved in water containing 10% ethanol. Aliquots were stored at −20° C. in 20 μL tubes. 10% ethanol in water was used as control.

[12] = Butcher et al., Org. Lett. 2009

SMILES | concentration of conditioned regions preferred (activity threshold) ([1]; males) [mM] | concentration of conditioned regions preferred (activity threshold) [2] [µM] | concentration of conditioned regions preferred (activity threshold) [3] [mM] | preference for areas conditioned by the ascaroside [4] | induction of the eurystomatous mouth form [5] | dauer induction [6] | activity in the bioassay [7] | concentrations at which active as hermaphrodite attractants and aggregation signals ([8]; in vivo) | aggregation of hermaphrodites ([8]; low worm density, solitary and social hermaphrodites) | aggregation in C. elegans [9] | response of P. redivivus females ([1]; females) | response of P. redivivus males ([1]; males) | dauer-inducing activity [10, 12] | shape of dauer response curve [10, 12] | promotion of dauer entry ([10]; shown previously) | attraction in the spot attraction assay ([11]; 1 pmol, N2 hermaphrodites and him-5 males) | attraction in the spot attraction assay ([11]; high concentrations, males and hermaphrodites) | attraction of hermaphrodites ([11]; low concentrations, N2 hermaphrodites) | attraction of males ([11]; low concentrations, males)
CC1O[C@@H](O[C@H](C)CCCCCCC(=O)O)C(O)C[C@H]1O (some centres unmarked) [ascr#10] | 1 | 1 | 1 | preferred |  |  |  |  |  |  |  |  |  |  |  |  |  |  | 
C[C@H](CCCCC(=O)O)O[C@@H]1O[C@@H](C)[C@H](O)C[C@H]1O [ascr#1, reference compound] |  |  |  | preferred | weaker induction of the eurystomatous mouth form | does not induce dauer formation; also recorded: no dauer-inducing activity | active to males |  |  |  |  |  |  |  |  |  |  |  | 
C[C@H](CCC(=O)O)O[C@@H]1O[C@@H](C)[C@H](OC(=O)c2c[nH]c3ccccc23)C[C@H]1O [icas#9, reference compound] |  |  |  |  |  |  |  | femtomolar to picomolar | increased aggregation of both solitary and social hermaphrodites | aggregating stimulant | repeled | elicited no response | moderate dauer-inducing activity | bell-shaped response curve | individually promote dauer entry | attractive to both C. elegans sexes | attracted both males and hermaphrodites | strongly attracted | not attracted; also recorded: not males
